In one data set the test system is HEK293 cells. The experiment in a line: Western blot of DNA repair signaling in HEK293 cells treated with genotoxins. The class given is cell-based. Particulars: 2 min to 2 h. Background: Immunoblotting shows a protein as a band on a membrane.
Data set [1] deals with fibroblasts from Hmox1+/+ and Hmox1−/− mice. The experiment in a line: H2AX phosphorylation / γ-H2AX foci in mouse fibroblasts treated with genotoxins. The data set is classed as cell-based. Particulars: doxorubicin 10 μg/ml, camptothecin 1 μg/ml; for phosphorylation of histone H2AX and γ-H2AX foci: Hmox+/+ fibroblasts. How it is done: Representative pictures are shown from at least two independent experiments in duplicates. Fibroblasts were treated with doxorubicin (10 μg/ml) for 2-4 hr.
(§1) U203 HR/SCR cells were maintained in the DMEM medium (Gibco, Invitrogen) containing 10% FBS and antibiotics. pPHW1 cells (NHEJ model) were maintained in the DMEM medium with 10% FBS and antibiotics. Mouse kidney fibroblasts were obtained from adult Hmox1^−/− and Hmox1^+/+ mice and culture between passages 4-7 in DMEM medium supplemented with 10% FBS and antibiotics. HEK293 were purchased from ATCC and were cultured following manufacturer's protocol. For CO in vitro studies, cells were exposed to 250 ppm CO, 5% CO2 in […] for 2 minutes to 24 hours. Cells were irradiated with 10 Gy and harvested at different time points after single exposure.

The test system of the next data set is U2OS-SCR reporter cells. Nature of the data set: HR/SCR reporter assay (GFP-positive cells by flow cytometry and fluorescence microscopy). The data set is classed as cell-based. Particulars: for CO-mediated HR (GFP-positive cells) under ATM/ATR blockade: inhibitor 20 μM 1 hour prior to CO 250 ppm for 24 hours; for number of GFP-positive cells (HR repair of DSB): U2OS-SCR cells transfected with SceI 24 hours, then treated 24 hours, CO 250 ppm.
Source text: To test this, the U20S cell line containing the HR/SCR (homologous recombination/sister chromatid recombination) reporter was used as previously described (12,13). I-SceI endonuclease was used to introduce a double strand break (DSB) within the reporter in U2OS cells. The efficiency of homologous recombination induced by I-SceI correlated with generation of wild type GFP by gene conversion.
(§2) Many of the effects observed with HO-1 are mediated by one or more of its enzymatic products biliverdin or CO. Therefore, the role of biliverdin and CO was tested separately in HR during DSB and DNA repair. U2OS-SCR reporter cells after transfection with SceI for 24 hours were treated with CO 250 (ppm) for 24 hours. […] No effects of CO were observed on NHEJ-mediated DNA repair as measured by number of XHATM-resistant colonies.
(§3) Lysates of PC3 and HEK cells were treated with CO (250 ppm) for 2′ to 1 h. […] Therefore, the two major DNA repair kinases, ATM and ATR, were examined to see if they are implicated in accelerated HR in the presence of CO or HO-1. […] U20S-SCR reporter cells were transfected with SceI for 24 hours and treated with CGK733 (20 μM) or DMSO for 1 hour prior treatment with CO (250 ppm) for 24 hours. U20S-SCR reporter cells were co-transfected with SceI for 24 hours and KU55933 (20 μM) or DMSO for 1 hour prior treatment with CO (250 ppm) was applied for following 24 hours. […] U20S-SCR reporter cells were co-transfected with SceI and HO-1 for 24 hours and CGK733 was applied for following 24 hours.
as §1
HR/SCR reporter U20S cells were used as previously described. Briefly, GFP+ cells were analyzed 2 days postransfection by flow cytometry (FACScan, BD Biosciences) and fluorescence microscopy. Images of GFP-positive cells were captured of randomized fields using a Zeiss Apotome fluorescent microscope.

Another data set deals with H2AXγ foci in tissues. Nature of the data set: DNA damage (H2AXγ foci) in tissues of nude mice with PC3 tumors treated with doxorubicin ± CO. The data set is classed as in vivo. On the procedure:
Based on the effects observed in vitro, the salutary effects of CO were tested in an in vivo model of DNA damage in mice. Tissues were harvested 14 days after treatment of nude mice with established PC3 tumors (2 weeks) with […] (Control) or doxorubicin (8 mg/kg, twice per week, i.v.)±CO (daily, 1 hour, 250 ppm). Doxorubicin was employed to induce DNA damage in the tissues during chemotherapeutic treatment of tumor xenografts in nude mice.
Nu/nu mice were purchased from Taconic (Hudson, N.Y.) at 7 weeks of age. Those mice were used in a complementary experiment of a subcutaneous tumor model of PC3 cells injected into the right flank of mice. Doxorubicin (8 mg/kg, Sigma) was given i.v. twice per week and mice were exposed to CO daily (250 ppm for 1 hour). Tissues were harvested after 2 weeks of treatment.

In a further data set the test system is pPHW1 cells (NHEJ model). The experiment in a line: NHEJ-mediated DNA repair (number of XHATM-resistant colonies). The class given is cell-based. On the procedure:
as §2, §1

Another data set deals with HEK cells. Nature of the data set: Immunoblot of DNA repair signaling after CO exposure. The data set is classed as cell-based. The conditions noted are these: CO 250 ppm, 2 minutes to 1 h. How it is done: as §3, §1
Another data set concerns irradiated mice. Nature of the data set: Radiation-induced model of DNA damage (lethal irradiation, 10 Gy). The class given is in vivo. On the procedure: To support the observations with chemical genotoxins, a radiation-induced model of DNA damage was also used. Endogenous HO-1 is induced early in response to IR or doxorubicin and its expression is sustained for 24-72 hours in the spleen, liver and kidney (FIGS. 7A-B). Kidneys and spleen were harvested after 2 hours after irradiation. To evaluate the role of exogenous CO, mice were pretreated with CO for 1 hour prior to either a lethal or sublethal dose of irradiation and then daily for 1 hour. Spleens and intestines of mice were pretreated with Air or CO (250 ppm) 1 hour prior lethal dose of irradiation (10 Gy) and treated daily with CO for 11 days. […] Tissues were harvested 2 hours after irradiation. To evaluate the role of H2AX signaling in CO effects on DNA repair, marginal bone marrow transplantation of BM cells from H2ax^−/− and H2ax^+/+ mice into wild type irradiated recipients was used. Mice were treated with CO prior lethal dose of irradiation (10 Gy) and thereafter after receiving BM.
Male C57BL/6 mice 7-9 weeks of age were purchased from Jackson Laboratories (Bar Harbor, Me.). Mice were held under SPF conditions and the experiments were approved by the IACUC at BIDMC. Mice were irradiated with 10 Gy (lethal dose) or 5 Gy (sublethal dose) and the protocol was approved by Radiation Safety Officer at BIDMC and the IACUC. Mice were exposed in plexiglass chamber to CO for 1 hour, 250 ppm prior irradiation and thereafter every day for 1 hour.
Mice were lethally irradiated and transplanted with […] i.v. immediately after irradiation. The amount of injected BM was sufficient for recovery of 40% mice.

The test system of data set [2] is lung and intestine gene expression. Nature of the data set: Gene expression in tissues of mice exposed to inhaled CO (real time PCR). The data set is classed as in vivo. How it is done: This is important given that the lung has such a high rate of cellular turnover. The increase in expression of these genes is associated with decreased senescence and extension of life span.
Male C57Bl/6 mice were exposed to inhaled carbon monoxide at 250 parts per million (ppm) for 1 hour. […] Real time PCR for telomerase in lungs, and topoisomerase (responsible for unwinding of DNA) and p16 (cell cycle suppressor) in intestines was performed, and expression was compared to air-exposed controls (FIG. 10). Results represent mean±SD of at least 3 mice/group, * p<0.05.
A general note: In qPCR the cycle at which signal appears reflects the starting amount.

Setting [3] is: CO 250 ppm 1 hour, harvested immediately, versus air.
[4] abbreviates: CO 1 hour, harvested at 24 hours.

Description for HEK293 cells: The direct effects of HO-1 was tested on signaling pathways in response to the DNA damaging agents, doxorubicin, camptothecin, or irradiation in loss and gain of function studies with HO-1. HEK293cells express high basal levels of HO-1 due to presence of large T antigen. HEK293 cells were transduced with micro-adapted shRNA to stably deplete HO-1 and then exposed to camptothecin, doxorubicin or irradiation. HEK293 cells with stable knockdown of HO-1 (mirHO-1) and control cells were treated with camptothecin (1 μg/ml) for 2′-2 h. The levels of HO-1 and DNA repair signaling proteins activation was measured by Western blot.
The status of the major DNA repair kinases, ATR, and ATM and their downstream targets was evaluated in HEK293 cells treated with camptothecin.
HEK mirHO-1 and control cells treated with doxorubicin (10 μg/ml) for 2′-2 h is shown. […] Akt is a loading control for the immunoblot for P-p53.

Regarding `CC[C@@]1(O)C(=O)OCc2c1cc1n(c2=O)Cc2cc3ccccc3nc2-1` [camptothecin], the “phosphorylation of H2AX” value with HEK293 cells (wild-type HEK293 cells, camptothecin 1 μg/ml) is listed as “induced phosphorylation”. In data set [1], the “phosphorylation of histone H2AX and γ-H2AX foci” value is given as “strong increase”.
Consider `O=c1cc(-c2cccc3c2Sc2ccccc2S3)oc(N2CCOCC2)c1` [KU55933], for which the “CO-mediated HR (GFP-positive cells) under ATM/ATR blockade” value in the data set on U2OS-SCR reporter cells is listed as “significantly decreased”.
As to `O=C(NC(NC(=S)Nc1ccc(F)c([N+](=O)[O-])c1)C(Cl)(Cl)Cl)C(c1ccccc1)c1ccccc1` (centres unmarked) [CGK733], the “HO-1-induced HR (GFP-positive cells) in presence of inhibitor” value in the data set on U2OS-SCR reporter cells (co-transfected with SceI and HO-1 for 24 hours, inhibitor applied following 24 hours) is reported as “did not increase HR”. The “CO-mediated HR (GFP-positive cells) under ATM/ATR blockade” value in the data set on U2OS-SCR reporter cells was “significantly decreased”.
For `C=CC1=C(C)/C(=C/C2=NC(=C\c3[nH]c(/C=C4\NC(=O)C(C)=C4C=C)c(C)c3CCC(=O)O)/C(CCC(=O)O)=C2C)NC1=O` [Biliverdin, biliverdin], the “number of GFP-positive cells (HR repair of DSB)” value in the data set with U2OS-SCR reporter cells is recorded as “no effect”.
As for `COc1cccc2c1C(=O)c1c(O)c3c(c(O)c1C2=O)C[C@@](O)(C(=O)CO)C[C@@H]3O[C@H]1C[C@H](N)[C@H](O)[C@H](C)O1` [Doxorubicin, doxorubicin], the “phosphorylation of ATM, p53 and H2AX” value in the data set on HEK293 cells (HEK293 cells, doxorubicin 10 μg/ml) is reported as “increase”. In addition, the γ-H2AX foci formation entry in data set [1] (Hmox1−/− fibroblasts) is reported as “no γ-H2AX foci formation”. Besides, the “phosphorylation of histone H2AX and γ-H2AX foci” value in data set [1] is “strong increase”. Besides, the “DNA damage by accumulation of H2AXγ foci” value in the data set with H2AXγ foci in tissues (doxorubicin 8 mg/kg i.v. twice per week, 14 days, lung, liver, kidney and colon) was “substantial DNA damage”.
For the compound `[C-]#[O+]` [CO, carbon monoxide], in the data set with U2OS-SCR reporter cells, the “number of GFP-positive cells (HR repair of DSB)” value is given as “significantly increased”. For the same compound, the “NHEJ-mediated DNA repair, number of XHATM-resistant colonies” value with pPHW1 cells (NHEJ model) is “No effects”. For the same compound, the “severity of doxorubicin-induced DNA damage (H2AXγ) in all organs” value in the data set on H2AXγ foci in tissues (CO daily, 1 hour, 250 ppm, with doxorubicin) is listed as “significantly decreased”. The “phosphorylation of Brca1, ATR and ATM” value in the data set on HEK cells is on record as “induced rapid phosphorylation”. The “sustained H2AXγ foci formation in spleen and intestine” value with irradiated mice (CO 250 ppm 1 hour prior to 10 Gy, then daily for 11 days) is given as “significant inhibition”. In addition, the “P-p53, P-Brca1, P-ATM and early P-H2AX in peripheral blood mononuclear cells and bone marrow” value in the data set with irradiated mice (CO 1 hour prior to irradiation, tissues harvested 2 hours after irradiation, versus air) is listed as “strong induction”. Further, in the data set on irradiated mice (lethal irradiation, CO 250 ppm 1 hour prior and daily, n=6/group, p=0.031 versus air (50%)), the “survival rate, mice alive >10 days” value is given as 80%. Besides, the “CO-mediated protection against irradiation-induced death with H2ax−/− donor BM” value in the data set with irradiated mice (marginal bone marrow transplantation into wild type recipients irradiated with 10 Gy) is reported as “reversed”. In data set [2] (setting [3]), the “expression of p16 in intestines” value is given as “increases expression”, the “expression of telomerase in lungs” value is reported as “increases expression” and the “expression of topoisomerase in intestines” value is recorded as “increases expression”. Moreover, in data set [2] (setting [4]), the “expression of SIRT1 in the lung” value is given as “increased expression” and the “expression of TERT in the lung” value is reported as “increased expression”.
